Experimental data taken from patent US20190010167A1, “INHIBITORS OF THE MENIN-MLL INTERACTION” (Vitae Pharmaceuticals, Inc., priority 2015, published 2019).

Key:
[1] = target: T1, menin/MLL (Gal4-Menin and MLL1-46-VP16) in HEK293 cells (Homo sapiens, UniProt O00255); test: Mammalian cellular two-hybrid assay in HEK293 cells (Assay 2, cell assay); type: cell-based; conditions: Gal4-Menin/MLL1-46-VP16 two-hybrid, NanoLuc luciferase reporter, 16-18 h
T1 construct: expressed in transfected cells; host or cells: HEK293 (ATCC)
Method: Potencies of inhibitor compounds against menin/MLL were tested in a mammalian cellular two-hybrid assay system. HEK293 cells (American Type Culture Collection (ATCC); Manassas, Va.) were co-transfected with three plasmids: one encoding Gal4-Menin (200 ng per 10^6 cells), another encoding MLL1-46-VP16 (100 ng per 10^6 cells), and a reporter plasmid pNL3.3-4×UAS (500 ng per 10^6 cells) encoding secreted NanoLuc® luciferase (Promega) with the upstream 4×UAS repeats for Gal4 binding. Transfection was performed in Opti-MEM® media using Lipofectamine® LTX with Plus™ Reagent (ThermoFisher Scientific) according to manufacturer's protocol. Cells were incubated with transfection reagents at 37° C. 5% CO2 for 5-6 h, harvested by trypsinization and centrifugation at 300×g for 5 min and resuspended in Gibco® DMEM media (phenol red-free, no antibiotics) containing 10% delipidated fetal bovine serum (FBS) (ThermoFisher Scientific). Concentration of cells in the media was adjusted to 3.5×10^5 cells/ml, and 100 μl of the cell suspension was dispensed into each well of 96-well Costar™ black clear bottom cell culture plates (Fisher Scientific). Tested compounds were added as 100 μL of 2× solutions in the media. Final concentration of DMSO was 0.1% in all wells. The cells were incubated with tested compounds at 37° C. 5% CO2 for 16-18 h. At the end of the incubation, 40 μL of the conditioned media from each well was transferred into each well of 96-well Costar™ black half-area plates (Fisher Scientific), to which 40 μl of 2× reconstituted NanoGlo® luciferase assay reagent (Promega) was added and thoroughly mixed on a microshaker for 2-3 min. Remaining media in the culture plates was removed by emptying the wells and blotting the plates on filter paper. The cells were lysed with 1× CellTiter-Glo® Luminescent Cell Viability Assay reagent (Promega) for assessing toxicity of the tested compounds. Both, Nano-Glo® and CellTiter-Glo® luminescence intensities were measured on EnVision® multilabel plate reader (PerkinElmer). Percent inhibition values were calculated based on Nano-Glo® luciferase activity observed with the tested compounds vs. DMSO control and commercially available menin inhibitor MI-2-2 (4-(4-(5,5-Dimethyl-4,5-dihydrothiazol-2-yl)piperazin-1-yl)-6-(2,2,2-trifluoroethyl)thieno[2,3-d]pyrimidine) (EMD Millipore, Cat. No. 444825) incubated with cells at 5 μM. These percent inhibition values were regressed against compound concentrations in the assay using non-linear 4-parameter logit curve fitting (XLFit, IDBS). Half maximal inhibitory concentrations (IC50) were calculated as the parameters of the fit corresponding to the inflection points on semi-logarithmic dose-response curves.

[2] = target: T2, wild-type menin / MLL-AF9 fusion protein (Homo sapiens, UniProt O00255); test: AlphaLISA menin/MLL binding assay, wild-type menin (Assay 1); conditions: biotinylated wild-type menin 5 nM, MLL-AF9-FLAG lysate
T2 construct: made in house; host or cells: E. coli (menin); HEK293 cleared lysate (MLL-AF9-FLAG)
T2 sequence (O00255 1-610): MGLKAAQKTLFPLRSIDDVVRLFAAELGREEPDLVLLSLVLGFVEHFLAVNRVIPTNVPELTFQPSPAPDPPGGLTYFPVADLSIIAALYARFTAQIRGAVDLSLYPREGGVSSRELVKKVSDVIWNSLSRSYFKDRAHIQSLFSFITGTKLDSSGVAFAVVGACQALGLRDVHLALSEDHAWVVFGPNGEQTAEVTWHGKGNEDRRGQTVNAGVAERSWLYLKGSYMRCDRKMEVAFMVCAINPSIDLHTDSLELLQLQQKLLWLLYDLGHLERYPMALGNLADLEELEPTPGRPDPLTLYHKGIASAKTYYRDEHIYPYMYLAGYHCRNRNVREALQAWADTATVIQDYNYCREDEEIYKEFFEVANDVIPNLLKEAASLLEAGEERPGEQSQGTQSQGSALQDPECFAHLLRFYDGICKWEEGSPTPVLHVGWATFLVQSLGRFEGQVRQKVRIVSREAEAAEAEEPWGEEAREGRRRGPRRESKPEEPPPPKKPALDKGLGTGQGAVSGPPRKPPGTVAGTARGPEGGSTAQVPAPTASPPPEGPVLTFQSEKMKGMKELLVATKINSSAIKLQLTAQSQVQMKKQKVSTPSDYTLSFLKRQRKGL
Method: Potencies of inhibitor compounds against menin/MLL binding were assessed by AlphaLISA assay using biotinylated (1) wild-type menin or (2) mutated menin (described in Nature (2012) Vol. 482, pp. 542-548) and MLL-AF9 fusion protein bearing a FLAG epitope at its C-terminus. Menin proteins were expressed in E. coli and covalently modified with biotin using EZ-Link™ Sulfo-NHS-Biotin (ThermoFisher Cat. No. 21217) according to manufacturer's protocol. MLL1-1,396 fused to AF91-92 and the C-terminal FLAG peptide was expressed in HEK293 cells and used as a lysate cleared at 21,000×g for 10 min.
Compounds (2 μL of solutions in DMSO) were dispensed in white 96-well half-area plates (Corning Cat. No. 3693) and incubated for 30 min at RT with 5 nM biotinylated menin and appropriate amount of MLL-AF9-FLAG lysate in 40 μL of 50 mM Tris-HCl buffer pH 7.4 containing 5% (v/v) DMSO, 50 mM NaCl, 0.01% (w/v) bovine serum albumin (BSA) and 1 mM DTT. To this incubation mixture, 40 μl of AlphaLISA anti-FLAG acceptor (PerkinElmer Cat. No. AL112C) and streptavidin donor (PerkinElmer Cat. No. 6760002) beads (10 μg/mL each) was added and incubation continued at RT for 60 min. Alpha (amplified luminescent proximity homogeneous assay) signal was measured on an Envision multi-label plate reader at the end of the incubation. All steps were conducted under dim fluorescent light.
These percent inhibition values were regressed against compound concentrations in the assay using four parameter logit non-linear curve fitting (XLFit, IDBS). The IC50 values were derived from the curve fitting as inflection points on the dose-response curves and are set out in Table 1 below.

T1 sequence (P04386 1-147 partner limits assumed, species assumed, one chain of several): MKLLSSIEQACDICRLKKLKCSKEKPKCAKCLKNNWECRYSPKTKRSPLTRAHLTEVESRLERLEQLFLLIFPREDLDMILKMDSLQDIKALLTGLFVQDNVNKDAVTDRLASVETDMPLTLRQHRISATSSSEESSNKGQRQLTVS

IC50 [1]	IC50 [2]	Structure (SMILES)
≥ 1000 nM	100 to 1000 nM	CS(=O)(=O)Cc1ccc(CC(=O)N2CC3(C2)CN(c2ncnc4sc(CC(F)(F)F)cc24)C3)cc1 [Example 61, 2-(4-((methylsulfonyl)methyl)phenyl)-1-(6-(6-(2,2,2-trifluoroethyl)thieno[2,3-d]pyrimidin-4-yl)-2,6-diazaspiro[3.3]heptan-2-yl)ethan-1-one]
100 to 1000 nM	< 100 nM	CS(=O)(=O)Nc1ccc(CN2CCC3(CCN(c4ncnc5sc(CC(F)(F)F)cc45)C3)C2)cc1 (stereo not shown) [Example 38, N-(4-((7-(6-(2,2,2-trifluoroethyl)thieno[2,3-d]pyrimidin-4-yl)-2,7-diazaspiro[4.4]nonan-2-yl)methyl)phenyl)methanesulfonamide]
100 to 1000 nM	< 100 nM	CS(=O)(=O)Nc1ccc(CN2CCC3(CC2)CN(c2ncnc4sc(CC(F)(F)F)cc24)C3)cc1 [Example 97, N-(4-((2-(6-(2,2,2-trifluoroethyl)thieno[2,3-d]pyrimidin-4-yl)-2,7-diazaspiro[3.5]nonan-7-yl)methyl)phenyl)methanesulfonamide]
≥ 1000 nM	100 to 1000 nM	FC(F)(F)Cc1cc2c(N3CC4(CCN(CC5CCOCC5)CC4)C3)ncnc2s1 [Example 99, 4-(7-((tetrahydro-2H-pyran-4-yl)methyl)-2,7-diazaspiro[3.5]nonan-2-yl)-6-(2,2,2-trifluoroethyl)thieno[2,3-d]pyrimidine]
–	100 to 1000 nM	FC(F)(F)Cc1cc2c(N3CCC4(CC3)CN(CC3CCOCC3)C4)ncnc2s1 [Example 19, 4-(2-((tetrahydro-2H-pyran-4-yl)methyl)-2,7-diazaspiro[3.5]nonan-7-yl)-6-(2,2,2-trifluoroethyl)thieno[2,3-d]pyrimidine]
–	100 to 1000 nM	CC(=O)N[C@H]1CC[C@H](CN2CCC3(CC2)CN(c2ncnc4sc(CC(F)(F)F)cc24)C3)CC1 [Example 105, N-((1r,4r)-4-((2-(6-(2,2,2-trifluoroethyl)thieno[2,3-d]pyrimidin-4-yl)-2,7-diazaspiro[3.5]nonan-7-yl)methyl)cyclohexyl)acetamide]
–	100 to 1000 nM	CCS(=O)(=O)N[C@H]1CC[C@H](CN2CC3(C2)CN(c2ncnc4sc(CC(F)(F)F)cc24)C3)CC1 [Example 71, N-((1r,4r)-4-((6-(6-(2,2,2-trifluoroethyl)thieno[2,3-d]pyrimidin-4-yl)-2,6-diazaspiro[3.3]heptan-2-yl)methyl)cyclohexyl)ethanesulfonamide]
–	< 100 nM	CS(=O)(=O)Nc1ccc(CN2CCC3(CCN(c4ncnc5sc(CC(F)(F)F)nc45)C3)C2)cc1 (stereo not shown) [Example 84, N-(4-((7-(2-(2,2,2-trifluoroethyl)thiazolo[5,4-d]pyrimidin-7-yl)-2,7-diazaspiro[4.4]nonan-2-yl)methyl)phenyl)methanesulfonamide]
–	100 to 1000 nM	FC(F)(F)Cc1cc2c(N3CC4(CCN(C[C@H]5CC[C@H](C(F)(F)F)CC5)CC4)C3)ncnc2s1 [Example 102, 6-(2,2,2-trifluoroethyl)-4-(7-(((1r,4r)-4-(trifluoromethyl)cyclohexyl)methyl)-2,7-diazaspiro[3.5]nonan-2-yl)thieno[2,3-d]pyrimidine]
–	100 to 1000 nM	FC(F)(F)Cc1cc2c(N3CCC4(CCN(CC5CCC(F)(F)CC5)C4)C3)ncnc2s1 (stereo not shown) [Example 32, 4-(7-((4,4-difluorocyclohexyl)methyl)-2,7-diazaspiro[4.4]nonan-2-yl)-6-(2,2,2-trifluoroethyl)thieno[2,3-d]pyrimidine]
–	≥ 1000 nM	CC(C)(N)CC(=O)N1CC2(CCN(c3ncnc4sc(CC(F)(F)F)cc34)CC2)C1 [Example 17, 3-amino-3-methyl-1-(7-(6-(2,2,2-trifluoroethyl)thieno[2,3-d]pyrimidin-4-yl)-2,7-diazaspiro[3.5]nonan-2-yl)butan-1-one]
–	100 to 1000 nM	FC(F)(F)Cc1cc2c(N3CCC4(CN(Cc5ccccc5)C4)C3)ncnc2s1 [Example 111, 4-(2-benzyl-2,6-diazaspiro[3.4]octan-6-yl)-6-(2,2,2-trifluoroethyl)thieno[2,3-d]pyrimidine]
–	100 to 1000 nM	CS(=O)(=O)c1ccc(CN2CCC3(CCN(c4ncnc5sc(CC(F)(F)F)cc45)C3)C2)c(Cl)c1 (stereo not shown) [Example 36, 4-(7-(2-chloro-4-(methylsulfonyl)benzyl)-2,7-diazaspiro[4.4]nonan-2-yl)-6-(2,2,2-trifluoroethyl)thieno[2,3-d]pyrimidine]
–	100 to 1000 nM	CC(C)CN1CCC2(CC1)CN(c1ncnc3sc(CC(F)(F)F)cc13)C2 [Example 101, 4-(7-isobutyl-2,7-diazaspiro[3.5]nonan-2-yl)-6-(2,2,2-trifluoroethyl)thieno[2,3-d]pyrimidine]
–	100 to 1000 nM	Cc1c(CN2CC[C@@]3(CCN(c4ccnc5ccc(CC(F)(F)F)cc45)C3)C2)ccc2[nH]c(C#N)cc12 (single isomer, unassigned) [Example 86a, 4-methyl-5-((7-(6-(2,2,2-trifluoroethyl)quinolin-4-yl)-2,7-diazaspiro[4.4]nonan-2-yl)methyl)-1H-indole-2-carbonitrile]
–	100 to 1000 nM	O=C([C@@H]1CCCN1)N1CCC2(CCN(c3ncnc4sc(CC(F)(F)F)cc34)C2)C1 (stereo partly shown) [Example 57, 4-(7-prolyl-2,7-diazaspiro[4.4]nonan-2-yl)-6-(2,2,2-trifluoroethyl)thieno[2,3-d]pyrimidine]
–	100 to 1000 nM	FC(F)(F)Cc1cc2c(N3CC4(CN(CC5CCC(F)(F)CC5)C4)C3)ncnc2s1 [Example 70, 4-(6-((4,4-difluorocyclohexyl)methyl)-2,6-diazaspiro[3.3]heptan-2-yl)-6-(2,2,2-trifluoroethyl)thieno[2,3-d]pyrimidine]
–	< 100 nM	Cc1c(CN2CCC3(CCN(c4ncnc5sc(CC(F)(F)F)cc45)C3)C2)ccc2[nH]c(C#N)cc12 (single isomer, unassigned) [Example 30b, 4-methyl-5-((7-(6-(2,2,2-trifluoroethyl)thieno[2,3-d]pyrimidin-4-yl)-2,7-diazaspiro[4.4]nonan-2-yl)methyl)-1H-indole-2-carbonitrile]
